From patent US12150750B2, “D-glucose and its analogs as tracers to assess the glucose transporter function on blood-cerebrospinal fluid barrier and the functioning of the brain lymphatic system” (The Johns Hopkins University, priority 2020, dated 2024)

Assays:
[1] = Dynamic glucose enhanced (DGE) onVDMP MRI at 11.7 T of glucose uptake in brain parenchyma and CSF of WT and Tau mice; format: in vivo, mouse; conditions: for fitted ADGE (amplitude of glucose uptake at equilibrium) of parenchyma: i.v. bolus 0.15 mL 50% glucose, n=4; for half-life: female, mouse, 0.15 mL of 50% w/w glucose (0.5 g/mL)
Procedure: (§1) The study was carried out under the approval of Johns Hopkins University animal care and use. Four female Tau4RΔK (Tau) mice (49) with an age of 7-8 months and four female age-matched C57BL/6J mice were used for the AD study. Two age-matched BALB/c mice were used for the validation of glucose uptake using an MRS method. The Tau mice were bred at Johns Hopkins University and the onset of tau tangles starts at the age of six months (49). A catheter was placed in the tail vein for glucose administration before placing the animal in the scanner.
All MRI experiments were performed on a horizontal bore 11.7 T Bruker Biospec system (Bruker, Ettlingen, Germany) equipped with actively shielded gradients, with a maximum strength of 74 Gauss/cm. A 72 mm quadrature volume resonator was used as a transmitter and a 2×2 mouse phased array coil for acquisition. All animals were anesthetized using 2% isoflurane in medical air, followed by 1% to 1.5% isoflurane for maintenance during the MRI scan. The mouse head was positioned using a bite bar and two ear pins. During the MRI scan, mice were placed on a water-heated animal bed. Respiratory rate was monitored via a pressure sensor (SAII, Stony Brook, NY, USA) and maintained at 40-60 breaths per minute. The B0 field over the mouse brain was adjusted using field-mapping and second-order shimming.
The MRI sequence used for monitoring the glucose uptake in brain and CSF was onVDMP, illustrated in (a) of FIG. 3. The duration of each binomial pulse pair was 3 ms, and the length of a saturation module was proportional to the total number of binomial pulse pairs. Two independent onVDMP sequences with different saturation-module lengths (i.e. 36 ms and 300 ms) were repeated in an interleaved fashion to detect the glucose uptake in brain parenchyma and CSF, respectively. Other imaging parameters were: TR/TE=2.5 s/5 ms, RARE factor=23, slice thickness=1 mm, a matrix size of 196×128 within a FOV of 20×10 mm^2. The scan time for each onVDMP experiment was fixed to 7.5 s and the dynamic glucose enhanced (DGE) images were acquired continuously for 27.5 min. A bolus of 0.15 mL 50% w/w glucose (0.5 g/mL, clinical-grade dextrose, Hospira, Lake Forest, IL) was given at 10th min of the dynamic experiment through the tail vein using a syringe pump (Harvard Apparatus Holliston, MA, USA). The first five minutes of dynamic scan were used as dummy scans to make sure system reached steady-state.
According to R1ρ theory (50-52), the water signal intensity (S) after applying an onVDMP sequence is expressed in some embodiments as: S=S0e^−T^onvDMP^R^1ρ (1)
where S0 is the water signal intensity without saturation. Because ΔR1ρ induced by glucose infusion is relatively small (41-43,53,54), the normalized change of water signal intensity ΔZ is approximated in some embodiments as: ΔZ=(Sbase−S)/Sbase=1−e^−T^onvDMP^ΔR^1ρ≈TonVDMPΔR1ρ (2)
where Sbase is the referenced water signal intensity. In this study, the average of water signal intensity before glucose infusion was used as Sbase. The dynamic images are calculated in some embodiments by averaging N images within a certain time period (55): Save=Σn=1^NΔZ(n)/N (3)
To correct for motion between DGE images, image registration was applied using Medical Imaging Registration Toolbox (MIRT) (56). The regions of interest (ROIs) were selected by hand with the reference to mouse brain atlas (https://mouse.brain-map.org).
The glucose uptake curves measured by DGE MRI are fitted using exponential functions in some embodiments to allow quantitative comparison: ΔDGE(t)=ADGE(1−e^−t/T^u,DGE) (4)
where ΔDGE(t) is the DGE signal difference determined by onVDMP MRI. Tu,DGE is the glucose uptake lifetime. The half-life time of glucose uptake was calculated by the equation: Thalf=Tu*0.6931. ADGE represents the amplitudes of glucose uptake at equilibrium measured by onVDMP. […]

[2] = Validation of glucose uptake in brain using an MRS method; format: in vivo; conditions: mouse, intravenous, BALB/c mice, read-out: half-life time of glucose uptake measured by MRS
Procedure: as §1

[3] = DGE onVDMP MRI at 3 T of D-glucose uptake and clearance in CSF of WT and APP/PS1 mice; format: in vivo, mouse; conditions: for ΔS at 2 min (CSF DGE signal difference) / ΔS at 30 min (CSF DGE signal difference): n=5
Excerpt: All animal experiments were approved by the Animal Ethics Committee and followed the institutional guidelines of Institutional Laboratory Animal Research Unit of City University of Hong Kong. […] APP/PS1 mice are double transgenic mice expressing a chimeric mouse/human amyloid precursor protein (Mo/HuAPP695swe) and a mutant human presenilin 1 (PS1-dE9), both directed to CNS neurons. Both mutations are associated with early-onset AD. Another six 6M WT mice were used for the control experiments.
The onVDMP sequence diagram is shown in (a) of FIG. 3. By setting a different binomial pulse number N, the saturation length is adjusted to image the parenchyma and CSF, respectively. In this study, the saturation length was set to 60 ms for imaging parenchyma and 900 ms for imaging CSF. DGE experiments on both parenchyma and CSF images are acquired in an alternate way in some embodiments during one acquisition, similar to the experiments in example 1.
When carrying out the MRI experiments on mice, anesthesia was induced and maintained using isoflurane at 2% and 1.5%, respectively. The isoflurane was mixed with 90% oxygen generated by an oxygen concentrator. The flow rate of oxygen generator was set to 2 liter per minute (LPM) and kept unchanged during the whole experiment. Mice were placed in a horizontal bore 3 T Bruker BioSpec animal scanner (Bruker, Germany). A 82-mm-diameter quadrature coil and a 23-mm-diameter mouse brain surface coil were used for transmitting and receiving signal, respectively. A catheter was placed in the tail vein for glucose administration before placing the animal in the scanner. A bolus of 0.15 mL filtered 50% D-glucose was injected into the mouse body through the tail vein over one minute (speed: 0.15 ml/min) using a MRI-compatible syringe pump (Harvard Apparatus). Mouse body temperature was maintained at 37° C. using a warming pad. Respiration and body temperature were continuously monitored using an MRI-compatible monitor system (SA Instruments, Inc). Before DGE acquisition, the B0 field over the mouse brain was shimmed using field-mapping and second-order shimming. The read-out module was rapid acquisition with refocused echoes (RARE) with TR/TE=2.5 s/4.7 ms, RARE factor=32, centric encoding, slice thickness=2 mm, a matrix size of 96×96 within a field of view (FOV) of 20×20 mm^2, resulting in a time resolution of 15 s for each pair of images (7.5 s for parenchyma and 7.5 s for CSF). A total number of 550 images were acquire for each DGE module, thus leading to a total scanning time of 1 h8 min 45 s. The glucose injection was started at 8 min 45 s and lasted for 1 min. […] The image slice was positioned based on a collected sagittal image of the mouse brain with the position of the coronal image slice set to −1.4 mm with respect to the anterior commissure (AC).
All image processing and data analyses were performed using custom written code in MATLAB (R2018b, MathWorks, USA). When calculating DGE kinetic curves, baseline signal Sbase was generated by averaging the 30 baseline images. Since the total number of DGE images was large ([…] for each mouse), every set of 15 images were averaged to visualize the dynamic process of glucose changes. Then Eq. 5 was used for each time point to construct the DGE kinetic curves after glucose administration.
The DGE data of CSF were fitted by a simple gamma variate model(66,67) for only the first 20 mins after glucose injection, giving an uptake rate and an estimate of the initial rate of clearance:
where A is an amplitude modulation parameter, μin represents the glucose uptake rate, μout represents the initial rate of clearance. […] The maximum signal that CSF DGE reached is directly extracted in some embodiments after fitting as Smax=max(ΔS′CSF(t)). For both parenchymal and CSF DGE curves, fitting was achieved using the built-in nonlinear least-squares curve fitting function in MATLAB. […]

[4] = literature reference 28; cited from earlier work

O=C[C@H](O)[C@@H](O)[C@H](O)[C@H](O)CO [D-glucose]
fitted ADGE (amplitude of glucose uptake at equilibrium) of parenchyma ([1]; Tau4RΔK mice, cortex): 1.70±1.33%
CSF ADGE ([1]; Tau mice, CSF): 6.72±2.22%
time at which DGE signal reached a plateau ([1]; Tau mice, CSF): around 25 min
glucose uptake in the cortex (DGE signal intensity) ([1]; Tau mice, cortex): 1.6±1.3%
fitted ADGE (amplitude of glucose uptake at equilibrium) of parenchyma ([1]; WT mice (C57BL/6J), cortex): 5.42±0.70%
CSF ADGE ([1]; WT mice, CSF): 7.03±2.12%
drop of DGE signal from the peak value at 27.5 minutes ([1]; WT mice, CSF): about 1.5±0.5%
peak value of DGE signal ([1]; WT mice, CSF): 6±0.3%
time at which DGE signal plateaued ([1]; WT mice, CSF): around 10 min
time at which DGE signal reaches a maximum before decay ([1]; WT mice, CSF): around 15 minutes
glucose uptake in the cortex (DGE signal intensity) ([1]; WT mice, cortex): 4.3±1.3%
half-life ([1]; C57BL/6J, brain parenchyma (cortex), iv, WT mice, cortex, read-out: uptake half-life time of parenchyma): 4.71 ± 1.03 min
half-life ([1]; C57BL/6J, intravenous, brain tissue of WT mice, as restated in discussion, read-out: half-life time of glucose uptake obtained by the onVDMP method): 4.71 ± 1.18 min
half-life ([1]; C57BL/6J, iv, WT mice, CSF, read-out: uptake half-life time of CSF): 1.24 ± 0.24 min
half-life ([1]; Tau4RΔK, brain parenchyma (cortex), iv, Tau mice, cortex, read-out: uptake half-life time of parenchyma): 5.14 ± 0.3 min
half-life ([1]; Tau4RΔK, iv, Tau mice, CSF, read-out: uptake half-life time of CSF): 7.8 ± 1.14 min
time at which glucose uptake reaches a plateau ([1]; parenchymal ROI (cortex), both WT and Tau mice): about 20 min
half-life [2]: 4.16 ± 0.69 min
ΔS at 2 min (CSF DGE signal difference) ([3]; APP/PS1 mice 6M): 12.70±2.30%
ΔS at 30 min (CSF DGE signal difference) ([3]; APP/PS1 mice 6M): 11.84±4.13%
ΔS at 2 min (CSF DGE signal difference) ([3]; WT mice 6M, i.v. bolus 0.15 mL 50% D-glucose): 14.56±2.86%
ΔS at 30 min (CSF DGE signal difference) ([3]; WT mice 6M): 3.18±2.95%
D-glucose uptake rate μin, WT versus APP/PS1 ([3]; mouse, in vivo): no significant difference
Smax (maximum CSF DGE signal), APP/PS1 versus WT ([3]; mouse, in vivo): significantly lower
washout initial rate μout of D-glucose in CSF, APP/PS1 compared to WT ([3]; mouse, in vivo): significantly slower
half-life time of glucose uptake, previous 13C MRS measurements [4]: 5.10 ± 0.11 min
